Measurements from patent US6706528B2, “Fluorescent magnesium indicators” (The United States of America as represented by the …, priority 2000, dated 2004).

Key:
[1] = UV absorption spectrum of the free indicator; type: physicochemical; details: buffer pH 7.2
Method: The emission and excitation fluorescence spectra of the compounds of the present invention (e.g., (1a-3a), (9a), (11a-13a), (15a), and (18a-24a)) were recorded using a 0.5 to 1.0 μM solution of the chelator buffered at pH 7.2. The solutions also contained 120 mM KCl and 20 mM NaCl to mimic the ionic strength of the intracellular medium. These solutions were titrated with stock solutions of MgCl2 containing an equimolar concentration of the 4-oxo-4H-quinolizine carboxylic acids to cancel out dilution effects during the titration. After each titration step, the emission and excitation fluorescence spectra were recorded. The apparent dissociation constants of indicators for Mg^2+ were determined from the fluorescence spectra as originally described by Grynkiewicz et al. (Grynkiewicz et al., J. Biol. Chem. 260: 3440-3450 [1985]).
In the following experiments, tetrahydrofuran (THF) was dried and distilled over sodium/benzophenone (Nalbenzophenone) prior to use. Dimethylformamide (DMF) was dried over molecular sieves (4 Å). Ethyl acetate, hexane, diethyl ether and all commercially available chemicals were used as received. After extractive work-up, the combined organic phases were dried on magnesium sulfate. Water used in the spectrophotometric and fluorescence experiments was filtered through a hydro PICOPURE® 2 filter. Thin layer chromatography was carried out on Sigma-Aldrich TLC plates (silica gel on polyester). Chromatographic purifications were done by flash chromatography using Merck Silica Gel, grade 9385, 230-400 mesh, 60 Å. Melting points were measured on a Fisher-Johns melting point apparatus and are shown uncorrected herein. ^1H-NMR spectra and ^13C-NMR spectra were recorded on a Nicolet NT 360 MHz NMR Spectrometer and a Varian UNITY plus 400 MHz NMR Spectrometer. Chemical shifts are reported in parts per million (δ), using tetramethylsilane (TMS) as the internal standard. The signals are expressed as an s (singlet), d (doublet), t (triplet), q (quartet), m (multiplet), or br (broad). High cresolution mass spectra were obtained from the Washington University Resources for Biomedical and Bio-organic Mass Spectrometry on samples which were chromatographically pure. Compounds (9a) and (21a) were analyzed by FABMS using NBA Li matrix. UV absorption spectra were recorded with a Bechman DU 650 Spectrophotometer using Fisherbrand™ semimicro quartz cells (Fisher Scientific). Fluorescence measurements were recorded with an Aminco-Bowman® Series 2 Spectrometer using quartz fluorimeter cuvets from Sigma. pH measurements were done using a Mettler Toledo MP 255 pH meter.
The buffered solutions used in fluorescence/Mg^2+ titration experiments contained 120 mM KCl, 20 mM NaCl, and 15 mM TRIS buffer, and were brought to pH=7.2 with concentrated HCl. A stock solution of 2 mg of the indicator in 5 ml buffer was prepared. To record a UV spectrum, the stock solutions were diluted 40 times (25 μl in 975 μl). For the fluorescence titration experiments, 25 μl of the stock solution was diluted 100 times with 2475 μl buffer. Emission fluorescence and excitation fluorescence spectra were recorded using the appropriate excitation wavelength derived from the UV spectrum of the free indicator. To 2475 μl of a MgCl2 solution (100 mM, 250 mM or 500 mM (2a)), 25 μl of the stock solution of the indicator was added, to cancel out dilution during the titration. To the solution of the free indicator, increasing amounts of the MgCl2/indicator solution were added. After each titration step, fluorescence emission and fluorescence excitation spectra were recorded.

[2] = fluorescent response to increasing Ca2+ concentrations; type: binding; details: for fluorescent response to increasing Ca^2+ concentrations: Ca^2+ up to 100 mM
[3] = fluorescence/pH titration to determine pKa; type: physicochemical; details: 10 mM MOPS buffer, from pH 4.29, read-out: pKa of the carboxylate group on the ring system
Method: However, it is not intended that the present invention be so limited nor is it necessary to understand the mechanism in order to practice the present invention. Thus, the indicators are present in the deprotonated form and available for complexation at physiological pH.
To determine the pKa of 1-bromo-8-(1,2-dicarboxyethyl)-4-oxo-4H-quinolizine-3-carboxylic acid (21a), 250 μl of the stock solution of 1-bromo-8-(1,2-dicarboxyethyl)-4-oxo-4H-quinolizine-3-carboxylic acid was added to 25 ml of 10 mM MOPS, pH 4.29. The fluorescence emission spectrum was recorded. A 0.1 M NaOH solution containing an equal concentration of 1-bromo-8-(1,2-dicarboxyethyl)-4-oxo-4H-quinolizine-3-carboxylic acid (21a), was added dropwise. After each pH increase of 0.2, the emission spectrum was recorded. At pH 6.31, no change of the fluorescence emission was observed.

Row | Molecule | A, absorption maximum of the free indicator [1] [nm] | melting point [°C] | also measured
1 | O=C(O)c1cc(CC(C(=O)O)C(=O)O)c2ccccn2c1=O [Compound 13a, 1-(2,2-dicarboxyethyl)-4-oxo-4H-quinolizine-3-carboxylic acid] | 395 | – | –
2 | O=C(O)c1cc(Br)c2ccccn2c1=O [Compound 9a, 1-bromo-4-oxo-4H-quinolizine-3-carboxylic acid] | 403 | > 250 | fluorescent response to increasing Ca^2+ concentrations [2]: no fluorescent response
3 | 1-[N,N-di(carboxymethyl)]-4-oxo-4H-quinolizine-3-carboxylic acid [Compound 11a] | 410 | – | –
4 | O=C(O)Cc1ccn2c(=O)c(C(=O)O)ccc2c1 [Compound 19a, 8-(carboxymethyl)-4-oxo-4H-quinolizine-3-carboxylic acid] | 380 | – | –
5 | O=C(O)CC(C(=O)O)c1ccn2c(=O)c(C(=O)O)ccc2c1 (stereo not drawn) [Compound 20a, 8-(1,2-dicarboxyethyl)-4-oxo-4H-quinolizine-3-carboxylic acid] | 390 | – | –
6 | O=C(O)c1ccc2cc(-c3cc4ccccc4o3)ccn2c1=O [Compound 24a, 8-benzo[b]furyl-4-oxo-4H-quinolizine-3-carboxylic acid] | 440 | – | –
7 | COc1ccc(-c2ccn3c(=O)c(C(=O)O)ccc3c2)cc1 [Compound 22a, 8-(4-methoxyphenyl)-4-oxo-4H-quinolizine-3-carboxylic acid] | 406 | > 250 | –
8 | 8-[3-(N,N-di(carboxymethyl)phenoxy]-4-oxo-4H-quinolizine-3-carboxylic acid [Compound 18a] | 370 | – | –
9 | O=C(O)c1ccc2cc(Cl)ccn2c1=O [Compound 2a, 4-oxo-8-chloro-4H-quinolizine-3-carboxylic acid] | 391 | > 250 | –
10 | O=C(O)c1ccc2ccc3ccccc3n2c1=O [Compound 3a, [6,7]benzo-4-oxo-4H-quinolizine-3-carboxylic acid] | 410 | – | –
11 | O=C(O)CC(C(=O)O)c1ccn2c(=O)c(C(=O)O)cc(Br)c2c1 (stereo not drawn) [Compound 21a, 1-bromo-8-(1,2-dicarboxyethyl)-4-oxo-4H-quinolizine-3-carboxylic acid] | 407 | > 250 | fluorescent response to increasing Ca^2+ concentrations [2]: no fluorescent response; pKa [3]: 5.6
12 | Nc1ccn2c(=O)c(C(=O)O)ccc2c1 [Compound 15a, 8-amino-4-oxo-4H-quinolizine-3-carboxylic acid] | 385 | – | –
13 | O=C(O)c1ccc2ccccn2c1=O [Compound 1a, 4-oxo-4H-quinolizine-3-carboxylic acid] | 385 | – | effect of Ca^2+ on the fluorescence emission ([2]; Ca^2+ levels in the nanomolar to submicromolar range): do not affect the fluorescence emission
14 | O=C(O)C(=Cc1cc(C(=O)O)c(=O)n2ccccc12)C(=O)O [Compound 12a, 1-(2,2-dicarboxyvinyl)-4-oxo-4H-quinolizine-3-carboxylic acid] | 400 | – | –
15 | O=C(O)c1ccc2cc(-c3cccc4ccccc34)ccn2c1=O [Compound 23a, 8-(naphth-1-yl)-4-oxo-4H-quinolizine-3-carboxylic acid] | 386 | 245 to 247 | –
